Reference: ChEMBL document CHEMBL5370619, “Targeting the Tyrosine Kinase 2 (TYK2) Pseudokinase Domain: Discovery of the Selective TYK2 Inhibitor ABBV-712” (J Med Chem, 2023)
pEC50: −log10 of the molar value. ≈ marks a conversion by molar mass, not a printed value.

Tests used:
[1] = Unbound clearance in rat blood at 1 mg/kg, iv or 1 mg/kg,po; type: ADME, organism-based; details: in vivo
[2] = target: T1, Tyrosine-protein kinase JAK3 (Homo sapiens, UniProt P52333); assay: Inhibition of JAK3 in human T-blast cells assessed as reduction in IL-2 induced STAT5 phosphorylation preincubated for 30 mins followed by IL-2 stimulation and measured after 20 mins by AlphaScreen assay; type: cell-based, T-blast cell
T1 sequence (P52333 whole entry): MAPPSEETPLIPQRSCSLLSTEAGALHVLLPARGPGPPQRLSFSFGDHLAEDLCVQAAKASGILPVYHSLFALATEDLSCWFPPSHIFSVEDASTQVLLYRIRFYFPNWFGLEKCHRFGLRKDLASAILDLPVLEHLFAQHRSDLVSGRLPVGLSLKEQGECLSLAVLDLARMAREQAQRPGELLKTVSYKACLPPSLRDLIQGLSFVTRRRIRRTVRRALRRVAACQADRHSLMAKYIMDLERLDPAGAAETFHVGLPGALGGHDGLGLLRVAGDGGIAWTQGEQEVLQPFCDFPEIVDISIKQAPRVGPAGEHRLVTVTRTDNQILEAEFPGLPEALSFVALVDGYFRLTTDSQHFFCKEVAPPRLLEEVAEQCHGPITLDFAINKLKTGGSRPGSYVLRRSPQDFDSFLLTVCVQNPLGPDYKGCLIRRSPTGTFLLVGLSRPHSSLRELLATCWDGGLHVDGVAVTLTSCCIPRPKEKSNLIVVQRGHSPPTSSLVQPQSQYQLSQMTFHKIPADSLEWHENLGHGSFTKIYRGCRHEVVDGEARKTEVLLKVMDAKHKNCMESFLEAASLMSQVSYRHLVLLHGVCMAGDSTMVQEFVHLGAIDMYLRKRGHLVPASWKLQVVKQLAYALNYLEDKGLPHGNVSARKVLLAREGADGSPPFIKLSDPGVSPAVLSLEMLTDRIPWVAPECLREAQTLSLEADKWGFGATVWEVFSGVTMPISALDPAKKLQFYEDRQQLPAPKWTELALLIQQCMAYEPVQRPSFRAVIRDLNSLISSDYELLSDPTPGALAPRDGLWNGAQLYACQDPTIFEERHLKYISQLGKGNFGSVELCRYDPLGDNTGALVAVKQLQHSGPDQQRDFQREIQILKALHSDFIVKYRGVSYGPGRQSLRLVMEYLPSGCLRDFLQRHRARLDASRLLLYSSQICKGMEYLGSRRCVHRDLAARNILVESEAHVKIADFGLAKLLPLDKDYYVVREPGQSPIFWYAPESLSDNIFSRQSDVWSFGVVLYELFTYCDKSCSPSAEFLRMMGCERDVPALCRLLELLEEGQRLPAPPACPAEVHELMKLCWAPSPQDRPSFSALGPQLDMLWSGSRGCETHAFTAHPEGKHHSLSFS

[3] = target: Non-receptor tyrosine-protein kinase TYK2 (Mus musculus, UniProt Q9R117); assay: Inhibition of TYK2 in C57/B6 mouse whole blood assessed as decrease in STAT4 phosphorylation preincubated for 30 mins followed by mouse IL-12p70 stimulation and measured after 20 mins by flow cytometry; type: tissue-based
Non-receptor tyrosine-protein kinase TYK2 (Mus musculus, UniProt Q9R117), sequence (Q9R117 whole entry): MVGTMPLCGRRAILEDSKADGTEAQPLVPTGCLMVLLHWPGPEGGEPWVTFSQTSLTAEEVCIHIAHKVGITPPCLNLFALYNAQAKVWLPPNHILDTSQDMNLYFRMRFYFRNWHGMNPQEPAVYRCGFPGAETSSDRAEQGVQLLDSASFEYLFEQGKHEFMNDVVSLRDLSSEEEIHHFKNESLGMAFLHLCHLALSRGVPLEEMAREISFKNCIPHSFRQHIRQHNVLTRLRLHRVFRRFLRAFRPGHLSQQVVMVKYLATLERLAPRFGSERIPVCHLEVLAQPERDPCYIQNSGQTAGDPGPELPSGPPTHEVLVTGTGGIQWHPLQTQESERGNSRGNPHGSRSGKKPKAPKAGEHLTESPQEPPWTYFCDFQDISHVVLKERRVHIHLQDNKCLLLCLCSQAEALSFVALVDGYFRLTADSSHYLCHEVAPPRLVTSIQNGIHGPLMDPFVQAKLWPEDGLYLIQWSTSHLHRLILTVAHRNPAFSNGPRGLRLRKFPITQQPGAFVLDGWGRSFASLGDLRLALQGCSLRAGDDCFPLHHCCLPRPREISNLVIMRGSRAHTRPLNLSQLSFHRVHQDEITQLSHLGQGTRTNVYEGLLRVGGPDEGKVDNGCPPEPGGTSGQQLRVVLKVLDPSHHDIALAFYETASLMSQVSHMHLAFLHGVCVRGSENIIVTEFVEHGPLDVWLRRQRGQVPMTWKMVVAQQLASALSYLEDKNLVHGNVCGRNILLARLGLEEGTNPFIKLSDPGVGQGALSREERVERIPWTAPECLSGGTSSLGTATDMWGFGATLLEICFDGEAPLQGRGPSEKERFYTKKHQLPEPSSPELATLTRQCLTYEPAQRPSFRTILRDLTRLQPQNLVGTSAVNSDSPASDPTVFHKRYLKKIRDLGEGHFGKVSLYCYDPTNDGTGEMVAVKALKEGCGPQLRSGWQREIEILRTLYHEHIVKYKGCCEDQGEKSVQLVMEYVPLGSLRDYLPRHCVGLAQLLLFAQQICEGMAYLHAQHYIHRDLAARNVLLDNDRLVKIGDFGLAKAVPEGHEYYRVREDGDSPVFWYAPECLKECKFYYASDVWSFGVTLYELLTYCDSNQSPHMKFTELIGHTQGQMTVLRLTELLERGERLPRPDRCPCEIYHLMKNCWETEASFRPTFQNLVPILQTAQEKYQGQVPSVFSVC

CYP3A4 [4] = target: T2, CYP3A4 (Homo sapiens, UniProt P08684); assay: Induction of CYP3A4 in human hepatocytes assessed as maximum activation in mRNA level at 10 uM incubated for 24 hrs by RT-qPCR analysis relative to control; type: ADME, cell-based, Hepatocyte; details: read-out: max activation
T2 sequence (P08684 whole entry): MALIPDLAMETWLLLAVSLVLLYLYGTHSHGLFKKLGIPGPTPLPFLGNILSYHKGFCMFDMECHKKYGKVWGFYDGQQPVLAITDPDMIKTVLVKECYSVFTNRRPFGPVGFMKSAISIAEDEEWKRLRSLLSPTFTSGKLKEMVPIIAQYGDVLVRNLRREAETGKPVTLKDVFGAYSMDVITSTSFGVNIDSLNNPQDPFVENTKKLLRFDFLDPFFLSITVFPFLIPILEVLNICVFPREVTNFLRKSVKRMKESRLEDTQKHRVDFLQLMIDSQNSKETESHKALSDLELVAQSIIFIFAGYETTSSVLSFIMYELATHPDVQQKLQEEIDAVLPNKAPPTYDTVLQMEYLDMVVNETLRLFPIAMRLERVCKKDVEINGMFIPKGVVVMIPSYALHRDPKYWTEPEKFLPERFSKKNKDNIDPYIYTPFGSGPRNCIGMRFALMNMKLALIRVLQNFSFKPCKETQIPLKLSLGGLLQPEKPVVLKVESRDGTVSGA

[5] = Oral bioavailability in cynomolgus monkey at 1 mg/kg; type: ADME, organism-based, Macaca fascicularis; details: in vivo
[6] = AUC (0 to infinity) in dog at 1 mg/kg,po; type: ADME, organism-based, Canis lupus familiaris; set-up: dose 1 mg/kg, route po; details: in vivo
Mus musculus [7] = assay: Anti-inflammatory activity in B10.RII mouse model of mouse IL-23 mini circle induced psoriasiform dermatitis assessed as decrease in ear thickness at 100 mg/kg,po BID for 5 days by caliper analysis; type: functional; set-up: scale not given: the % may be the effect or the level left; details: time 5 day
[8] = target: Tyrosine-protein kinase JAK2 (Homo sapiens, UniProt O60674); assay: Inhibition of JAK2 in human UT7 cells assessed as reduction in erythropoietin induced STAT5 phosphorylation preincubated for 30 mins followed by erythropoietin stimulation and measured after 20 mins by AlphaScreen assay; type: cell-based
Tyrosine-protein kinase JAK2, sequence (O60674 whole entry): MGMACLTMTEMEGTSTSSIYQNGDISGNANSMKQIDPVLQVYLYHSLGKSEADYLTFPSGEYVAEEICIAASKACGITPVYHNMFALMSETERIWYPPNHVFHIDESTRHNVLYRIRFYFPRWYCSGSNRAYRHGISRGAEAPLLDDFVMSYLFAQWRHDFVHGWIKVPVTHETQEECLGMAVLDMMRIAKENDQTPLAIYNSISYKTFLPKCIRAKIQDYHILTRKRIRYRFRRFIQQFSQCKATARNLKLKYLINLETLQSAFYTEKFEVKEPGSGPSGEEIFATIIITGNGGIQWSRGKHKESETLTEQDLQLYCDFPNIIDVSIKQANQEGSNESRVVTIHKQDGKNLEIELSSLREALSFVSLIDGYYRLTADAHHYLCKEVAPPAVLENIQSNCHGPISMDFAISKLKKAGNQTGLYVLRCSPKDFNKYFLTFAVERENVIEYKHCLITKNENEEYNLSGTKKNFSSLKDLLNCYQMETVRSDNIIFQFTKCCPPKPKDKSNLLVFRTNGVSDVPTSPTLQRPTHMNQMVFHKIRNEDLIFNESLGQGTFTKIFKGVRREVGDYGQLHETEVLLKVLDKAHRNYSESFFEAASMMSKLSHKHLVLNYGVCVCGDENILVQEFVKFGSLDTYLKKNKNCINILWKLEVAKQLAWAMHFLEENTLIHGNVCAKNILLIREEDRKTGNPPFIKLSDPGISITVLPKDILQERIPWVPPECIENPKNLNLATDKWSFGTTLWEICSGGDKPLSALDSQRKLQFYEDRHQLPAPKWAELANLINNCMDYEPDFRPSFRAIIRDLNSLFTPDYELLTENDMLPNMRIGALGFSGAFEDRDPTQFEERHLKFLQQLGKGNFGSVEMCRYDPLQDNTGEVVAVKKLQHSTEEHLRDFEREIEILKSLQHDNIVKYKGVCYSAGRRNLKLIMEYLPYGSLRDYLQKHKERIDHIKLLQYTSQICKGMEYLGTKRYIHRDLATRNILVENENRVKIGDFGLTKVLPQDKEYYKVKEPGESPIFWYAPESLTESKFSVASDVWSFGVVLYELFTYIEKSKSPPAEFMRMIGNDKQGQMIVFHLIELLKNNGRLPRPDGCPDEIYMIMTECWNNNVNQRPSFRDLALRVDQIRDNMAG

[9] = Unbound clearance in dog blood at 1 mg/kg, iv; type: ADME, organism-based, Canis lupus familiaris; details: in vivo
Mus musculus [10] = assay: Anti-inflammatory activity in po dosed B10.RII mouse model of mouse IL-23 mini circle induced psoriasiform dermatitis assessed as decrease in ear thickness measured at 1 to 100 ng/ml of whole blood drug exposure level measured after 30 mins; type: functional, organism-based; details: 0.5 h
[11] = target: Non-receptor tyrosine-protein kinase TYK2 (Homo sapiens, UniProt P29597); assay: Inhibition of TYK2 in human T-blast cells assessed as IL-12 induced STAT4 phosphorylation at Tyr694 residue preincubated for 30 mins followed by IL-12 stimulation and measured after 20 mins by AlphaScreen assay; type: cell-based, T-blast cell
Non-receptor tyrosine-protein kinase TYK2 (Homo sapiens, UniProt P29597), sequence (P29597 whole entry): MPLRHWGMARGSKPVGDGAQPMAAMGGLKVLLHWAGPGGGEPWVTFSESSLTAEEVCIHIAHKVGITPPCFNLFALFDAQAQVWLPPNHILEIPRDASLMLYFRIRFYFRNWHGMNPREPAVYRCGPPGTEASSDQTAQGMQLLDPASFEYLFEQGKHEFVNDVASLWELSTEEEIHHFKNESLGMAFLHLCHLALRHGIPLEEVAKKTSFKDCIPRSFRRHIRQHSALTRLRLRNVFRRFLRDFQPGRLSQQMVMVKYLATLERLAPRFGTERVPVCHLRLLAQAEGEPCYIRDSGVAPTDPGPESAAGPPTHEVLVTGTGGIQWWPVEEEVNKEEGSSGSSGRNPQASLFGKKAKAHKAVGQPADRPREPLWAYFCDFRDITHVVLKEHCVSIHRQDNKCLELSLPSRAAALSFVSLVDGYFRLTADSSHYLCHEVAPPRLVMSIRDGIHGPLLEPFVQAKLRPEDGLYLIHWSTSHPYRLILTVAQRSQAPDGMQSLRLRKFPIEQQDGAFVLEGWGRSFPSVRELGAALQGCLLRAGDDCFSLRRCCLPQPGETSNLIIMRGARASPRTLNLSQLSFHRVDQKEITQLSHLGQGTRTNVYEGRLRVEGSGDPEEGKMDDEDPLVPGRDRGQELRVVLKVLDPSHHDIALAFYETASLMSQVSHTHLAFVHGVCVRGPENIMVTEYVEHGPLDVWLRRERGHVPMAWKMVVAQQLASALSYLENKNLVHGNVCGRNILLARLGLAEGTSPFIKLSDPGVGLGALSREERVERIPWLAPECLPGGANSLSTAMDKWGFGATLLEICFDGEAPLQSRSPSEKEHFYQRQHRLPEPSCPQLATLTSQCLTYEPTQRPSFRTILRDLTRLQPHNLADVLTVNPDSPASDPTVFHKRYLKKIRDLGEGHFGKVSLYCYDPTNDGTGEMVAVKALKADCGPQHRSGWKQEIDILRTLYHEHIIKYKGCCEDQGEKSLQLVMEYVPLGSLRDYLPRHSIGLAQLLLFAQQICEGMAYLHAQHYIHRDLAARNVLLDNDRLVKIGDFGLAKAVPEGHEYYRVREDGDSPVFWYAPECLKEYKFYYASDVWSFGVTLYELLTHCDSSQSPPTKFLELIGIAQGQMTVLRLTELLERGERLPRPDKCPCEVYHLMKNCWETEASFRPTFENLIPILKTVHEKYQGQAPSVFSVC

[12] = Metabolic stability in monkey hepatocytes assessed as intrinsic clearance for unbound fraction of drug; type: ADME, cell-based, Macaca mulatta, Hepatocyte; details: rhesus monkey
[13] = Unbound clearance in cynomolgus monkey blood at 1 mg/kg, iv; type: ADME, organism-based, Macaca fascicularis; details: in vivo
[14] = In vivo inhibition of TYK2 in IL-12/IL-18 induced C57/B6 mouse model assessed as reduction in serum IFN-gamma production at 10 mg/kg,po pretreated for 30 mins prior to IL-12/IL-18 challenge and measured after 4 hrs by MSD assay; type: functional; details: C57/B6, 4.5 h, time 270 min
CYP3A4 [15] = target: T2, CYP3A4; assay: Time dependent inhibition of CYP3A4 in human liver microsomes using midazolam as substrate assessed as 1'-OH midazolam metabolite formation at 50 uM preincubated for 30 mins in presence of NADPH followed by substrate addition and measured after 15 mins by HPLC-MS/MS analysis relative to control; type: ADME, Microsome; details: probe midazolam, time 45 min, read-out: TDI
[16] = In vivo inhibition of TYK2 in po dosed IL-12/IL-18 induced C57/B6 mouse model assessed as reduction in serum IFN-gamma production measured at 1 to 10000 ng/ml of whole blood drug exposure level measured after 30 mins; type: functional, organism-based; details: C57/B6, 0.5 h
Mus musculus [17] = assay: Anti-inflammatory activity in po dosed B10.RII mouse model of mouse IL-23 mini circle induced psoriasiform dermatitis assessed as decrease in ear thickness measured at 101 to 10000 ng/ml of whole blood drug exposure level measured after 30 mins; type: functional, organism-based; details: 0.5 h
[18] = Volume of distribution at steady state in rat at 1 mg/kg, iv or 1 mg/kg,po; type: ADME, organism-based; details: in vivo, read-out: Vdss
[19] = Oral bioavailability in dog at 1 mg/kg; type: ADME, organism-based, Canis lupus familiaris; details: in vivo
Mus musculus [20] = assay: Anti-inflammatory activity in B10.RII mouse model of mouse IL-23 mini circle induced psoriasiform dermatitis assessed as decrease in ear thickness at 10 mg/kg,po BID for 5 days by caliper analysis; type: functional; set-up: scale not given: the % may be the effect or the level left; details: time 5 day
[21] = In vivo inhibition of TYK2 in IL-12/IL-18 induced C57/B6 mouse model assessed as reduction in serum IFN-gamma production at 100 mg/kg,po pretreated for 30 mins prior to IL-12/IL-18 challenge and measured after 4 hrs by MSD assay; type: functional; details: C57/B6, 4.5 h, time 270 min

COCc1cc(-c2cn(C3COC3)c3cnc(NC(C)=O)cc23)nc([C@]2(OC)CCOC2)c1
CL free [1]: 68.3 mL/min/kg
pEC50 [2]: < 4.70
pEC50 [3]: 5.85
Emax at 24 h, 10 µM (CYP3A4 [4]): 2%
bioavailability [5]: 17%
AUC(0-inf) [6]: 2300 ng·h/mL
Activity (Mus musculus [7]): 61%
pEC50 [8]: < 4.70
CL free [9]: 7.67 mL/min/kg
EC50 (Mus musculus [10]): 0.104 µg/mL (≈ 0.23 µM)
pEC50 [11]: 6.71
CL free [12]: 45 mL/min/kg
CL free [13]: 38.3 mL/min/kg
inhibition in vivo at 10 mg/kg [14]: 24%
inhibition at 0.25 h, 50 µM (CYP3A4 [15]): 22%
IC50 [16]: 3.08 µg/mL (≈ 6.81 µM)
EC50 (Mus musculus [17]): 0.3 µg/mL (≈ 0.663 µM)
Vd [18]: 1.9 L/kg
bioavailability [19]: 88%
Activity (Mus musculus [20]): 38%
inhibition in vivo at 100 mg/kg [21]: 84%
